Test results: PMC5429603, “Discovery and characterization of verinurad, a potent and specific inhibitor of URAT1 for the treatment of hyperuricemia and gout” (Scientific Reports, 2017)

Columns and labels:
rat URAT1 r-T32C = target: T1, rat URAT1 r-T32C (Rattus norvegicus, UniProt Q3ZAV1, T32C); assay: URAT1 activity assay, r-T32C; type: cell-based
T1 construct: expressed in transfected cells; host or cells: HEK-293T
Excerpt: (§1) Human URAT1 (GenBank BC053348.1, Homo sapiens SLC22A12), rat URAT1 (NCBI NM_001034943.1, Rattus norvegicus Slc22a12) and human OAT4 (NCBI NM_018484.2, Homo sapiens SLC22A11) genes were purchased from Origene Technologies, Inc. and subcloned into pCMV6/neo using NotI. Where indicated, controls transfections used pCMV6/neo. Mutants were produced by site-directed mutagenesis using the QuikChange Lightning Multi Site-Directed Mutagenesis Kit (Agilent Technologies). […] Mutagenic primer sequences are provided in ref. [15] and mutagenic primer sequences for previously unreported mutants shown in Supplementary Table 1. All constructs used in this study were untagged. Human OAT1 was purchased from Fisher Scientific (catalog # MHS1010–7508183 in pSPORT6, NCBI NM_153276.2, Homo sapiens SLC22A6).
(§2) HEK-293T cells were maintained in DMEM/high glucose/L-glutamine/HEPES supplemented with 1 mM sodium pyruvate (Life Technologies) and 10% FBS (PAA Laboratories) at 37 °C in 5% CO2. […]
(§3) URAT1 and OAT4 activity assays were performed in assay buffer consisting of 25 mM MES pH 5.5 (from a 1 M MES solution [Sigma] adjusted to pH 5.5 with sodium hydroxide), 125 mM sodium gluconate, 4.8 mM potassium gluconate, 1.2 mM monobasic potassium phosphate, 1.2 mM magnesium sulfate, 1.3 mM calcium gluconate and 5.6 mM glucose. […] Each treatment was measured in triplicate.

rat URAT1 r-V25M = target: T2, rat URAT1 r-V25M (Rattus norvegicus, UniProt Q3ZAV1, V25M); assay: URAT1 activity assay, r-V25M; type: cell-based
T2 construct: expressed in transfected cells; host or cells: HEK-293T
Excerpt: as §1, §2, §3

healthy human volunteers = assay: Verinurad study in humans (sUA and FEUA after a single dose); type: in vivo; conditions: single 40 mg dose
Method: The study was conducted in accordance with Good Clinical Practice and the Declaration of Helsinki and with independent ethics committee (Welwyn Clinical Pharmacology Ethics Committee, Hatfield, UK) approval. Informed consent was obtained from all subjects before participating in the study. […] Urine samples were collected from 0 to 6 hours, 6 to 12 hours and 12 to 24 hours post dosing to measure the urinary excretion of uric acid and creatinine. FEUA was calculated using equation 1:1 FEUA=([urineuricacid]×[serumcreatinine])/([serumuricacid]×[urinecreatinine]) To determine time-weighted average plasma verinurad concentrations (TWA), plasma verinurad levels were first measured from serial plasma collections.

rat URAT1 r-T26V = rat URAT1 r-T26V (Rattus norvegicus, UniProt Q3ZAV1, T26V); assay: cell-based
Excerpt: as §1
(§4) HEK-293T cells were maintained in DMEM/high glucose/L-glutamine/HEPES supplemented with 1 mM sodium pyruvate (Life Technologies) and 10% FBS (PAA Laboratories) at 37 °C in 5% CO2. To express URAT1, OAT4 or OAT1, plasmids were reverse transfected into HEK-293T cells. DNA (10 µg) was mixed with 30 µl of DreamFect Gold (Boca Scientific) in 2 ml OptiMem (Life Technologies). After 20 minutes, 18 ml of media containing 2 × 10^7 cells in suspension was added and mixed, and 200 µl per well were plated onto white clear-bottomed poly-D-lysine coated 96-well plates (BD Biosciences). The cells were assayed the following day.
(§5) URAT1 and OAT4 activity assays were performed in assay buffer consisting of 25 mM MES pH 5.5 (from a 1 M MES solution [Sigma] adjusted to pH 5.5 with sodium hydroxide), 125 mM sodium gluconate, 4.8 mM potassium gluconate, 1.2 mM monobasic potassium phosphate, 1.2 mM magnesium sulfate, 1.3 mM calcium gluconate and 5.6 mM glucose. URAT1 inhibitors were serially diluted into assay buffer and added to the cells for 5 minutes prior to addition of substrate. URAT1-expressing cells were incubated with 100 µM ^14C-uric acid for 10 minutes and OAT4-expressing cells were incubated with 20 µM carboxyfluorescein (Life Technologies, Inc.) for 5 minutes. Cells were then washed three times in 25 mM MES pH 5.5/125 mM sodium gluconate, and solubilized in Ultima Gold (Perkin Elmer) prior to liquid scintillation counting. Each treatment was measured in triplicate.

rat URAT1 r-Y365F/M481I = rat URAT1 r-Y365F/M481I (Rattus norvegicus, UniProt Q3ZAV1, M481I/Y365F); assay: cell-based
Excerpt: as §1, §4, §5

rat URAT1 r-N35S/M481I = rat URAT1 r-N35S/M481I (Rattus norvegicus, UniProt Q3ZAV1, M481I/N35S); assay: cell-based
Excerpt: as §1, §4, §5

rat URAT1 r-P27S = rat URAT1 r-P27S (Rattus norvegicus, UniProt Q3ZAV1, P27S); assay: cell-based
Excerpt: as §1, §4, §5

rat URAT1 r-N35S = target: T3, rat URAT1 r-N35S (Rattus norvegicus, UniProt Q3ZAV1, N35S); assay: URAT1 activity assay, r-N35S; type: cell-based
T3 construct: expressed in transfected cells; host or cells: HEK-293T
Excerpt: as §1, §2, §3

rat URAT1 r-M481I = target: T4, rat URAT1 r-M481I (Rattus norvegicus, UniProt Q3ZAV1, M481I); assay: URAT1 activity assay, r-M481I; type: cell-based
T4 construct: expressed in transfected cells; host or cells: HEK-293T
Excerpt: as §1, §2, §3

rat URAT1 = target: T5, rat URAT1 (Rattus norvegicus, UniProt Q3ZAV1); assay: URAT1 activity assay, rat URAT1; type: cell-based; conditions: rat URAT1 wild type; 14C-uric acid; read-out: IC50, inhibition of transport activity
T5 construct: host or cells: HEK-293T
T5 sequence (Q3ZAV1 1-553): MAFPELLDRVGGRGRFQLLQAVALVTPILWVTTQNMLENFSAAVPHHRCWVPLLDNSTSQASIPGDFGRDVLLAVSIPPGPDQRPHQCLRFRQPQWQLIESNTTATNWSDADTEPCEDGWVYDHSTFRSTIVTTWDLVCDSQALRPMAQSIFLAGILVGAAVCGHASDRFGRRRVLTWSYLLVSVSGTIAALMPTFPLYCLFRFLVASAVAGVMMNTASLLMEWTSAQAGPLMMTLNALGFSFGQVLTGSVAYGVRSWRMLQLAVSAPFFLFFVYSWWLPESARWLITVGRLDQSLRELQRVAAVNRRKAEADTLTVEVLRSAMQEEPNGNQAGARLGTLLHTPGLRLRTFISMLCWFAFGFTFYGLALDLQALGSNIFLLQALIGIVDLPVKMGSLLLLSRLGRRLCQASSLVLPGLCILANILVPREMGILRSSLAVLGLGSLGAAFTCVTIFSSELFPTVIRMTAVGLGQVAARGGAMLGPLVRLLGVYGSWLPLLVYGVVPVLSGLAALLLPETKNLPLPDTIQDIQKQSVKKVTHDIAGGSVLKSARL
Method: as §4
as §5, with “Cells were then washed three times in 25 mM MES pH 5.5/125 mM sodium gluconate, and solubilized in Ultima Gold (Perkin Elmer) prior to liquid scintillation counting.” left out

[1] = TM1 point mutant, read-out: Verinurad affinity (IC50)

T4 sequence (Q3ZAV1 whole entry M481I): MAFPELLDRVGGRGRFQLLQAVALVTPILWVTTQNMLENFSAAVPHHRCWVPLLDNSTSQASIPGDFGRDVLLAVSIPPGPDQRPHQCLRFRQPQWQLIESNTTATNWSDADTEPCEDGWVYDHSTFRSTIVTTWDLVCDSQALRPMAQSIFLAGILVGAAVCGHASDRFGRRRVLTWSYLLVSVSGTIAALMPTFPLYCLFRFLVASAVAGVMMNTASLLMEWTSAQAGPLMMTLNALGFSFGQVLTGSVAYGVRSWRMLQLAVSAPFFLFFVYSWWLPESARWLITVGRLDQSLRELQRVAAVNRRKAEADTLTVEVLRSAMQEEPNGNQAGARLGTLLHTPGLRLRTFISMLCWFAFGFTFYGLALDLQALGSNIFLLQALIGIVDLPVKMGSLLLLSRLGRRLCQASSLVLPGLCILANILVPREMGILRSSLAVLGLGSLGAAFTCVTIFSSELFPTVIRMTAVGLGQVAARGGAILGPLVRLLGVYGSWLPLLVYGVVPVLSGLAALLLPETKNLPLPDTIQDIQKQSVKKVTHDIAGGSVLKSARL
T1 sequence (Q3ZAV1 whole entry T32C): as the sequence (Q3ZAV1 whole entry M481I) above, with T32C, I481M counted along it
T3 sequence (Q3ZAV1 whole entry N35S): as the sequence (Q3ZAV1 whole entry M481I) above, with N35S, I481M counted along it
T2 sequence (Q3ZAV1 whole entry V25M): as the sequence (Q3ZAV1 whole entry M481I) above, with V25M, I481M counted along it
Chain of rat URAT1 r-P27S (Q3ZAV1 whole entry P27S): as the sequence (Q3ZAV1 whole entry M481I) above, with P27S, I481M counted along it
Chain of rat URAT1 r-T26V (Q3ZAV1 whole entry T26V): as the sequence (Q3ZAV1 whole entry M481I) above, with T26V, I481M counted along it
Chain of rat URAT1 r-N35S/M481I (Q3ZAV1 whole entry N35S/M481I): as the sequence (Q3ZAV1 whole entry M481I) above, with N35S counted along it
Chain of rat URAT1 r-Y365F/M481I (Q3ZAV1 whole entry Y365F/M481I): as the sequence (Q3ZAV1 whole entry M481I) above, with Y365F counted along it

SMILES: CC(C)(Sc1ccncc1-c1ccc(C#N)c2ccccc12)C(=O)O [Verinurad, 2-((3-(4-cyanonaphthalen-1-yl)pyrindin-4-yl)thio)-2-methylpropanoic acid]
- fold increase in affinity relative to rat URAT1 (rat URAT1 r-T32C): 1.4 fold
- IC50 (rat URAT1 r-T32C; [1]): 29 ± 3.1 µM
- fold increase in affinity (rat URAT1 r-V25M; r-V25M vs rat URAT1): 2.3 fold
- IC50 (rat URAT1 r-V25M; r-V25M, TM1 point mutant, read-out: Verinurad affinity (IC50)): 18 ± 3.2 µM
- time sUA is maintained below pretreatment levels (healthy human volunteers): 24 h
- EC50 (healthy human volunteers; healthy human volunteers, time-weighted average plasma concentration, read-out: half-maximal effective concentration in plasma for increase in FEUA): 0.022 µM
- IC50 (rat URAT1 r-T26V): 39 ± 5.5 µM
- IC50 (rat URAT1 r-Y365F/M481I): 0.59 µM
- IC50 (rat URAT1 r-N35S/M481I): 4.43 µM
- IC50 (rat URAT1 r-P27S): 27 ± 3.4 µM
- fold increase in affinity (rat URAT1 r-P27S; printed r-S27P, vs rat URAT1): 1.5 fold
- fold higher affinity relative to rat URAT1 (rat URAT1 r-N35S): 4 fold
- IC50 (rat URAT1 r-N35S; [1]): 10 ± 1.5 µM
- fold increase in affinity compared to rat URAT1 (rat URAT1 r-M481I): 4 fold
- IC50 (rat URAT1 r-M481I; TM11 point mutant, read-out: Verinurad affinity (IC50)): 11 ± 3.1 µM
- IC50 (rat URAT1): 41 ± 2.7 µM
